Test results from patent US20240238425A1, “HSD17B13 Inhibitors and/or Degraders” (Pfizer Inc., priority 2022, published 2024).
Counter-ions that a name gives are not always drawn.

System: HiBiT-HSD17β13 fusion protein (N-terminal HiBiT-tagged HSD17β13 isoform D) in Huh7 HiBiT-HSD17β13 OE cells
Test: Whole-cell Huh7-HSD17B13 HiBiT assay (degrader potency and maximal efficacy, luminescence readout)
Format: cell-based, human
Settings: 24 hour incubation, geometric mean, * = geometric mean for all forms tested (parent and salt forms); for DC50: read-out: Huh7_HIBIT-HSD17β13_DC50 GMean DC50; for Huh7_HIBIT-HSD17β13_DC50 GMean Asymptote Maximum: max. concentration 1 μM
Method in brief: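 Huh7 cells stably overexpressing N-terminal HiBiT-tagged HSD17β13 isoform D, clone matched to primary hepatocyte expression, were exposed to an 11-point, 1 in 3.162 dilution series (top 1 μM final) for 24 h at 37° C. Lytic HiBiT luminescence was normalised to DMSO and parental-cell controls; DC50 from four-parameter logistic fit, with CellTiter-Glo counter screen.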

For `Cn1c(=O)n(C2CCC(=O)NC2=O)c2ccc(CCCN3CCc4nc(-c5ccc6cn([C@H]7CC[C@H](CNC(=O)c8cc(F)c(O)c(F)c8F)CC7)nc6c5)ncc4C3)cc21` (mixture of isomers) [Example 87, N-{[(1r,4r)-4-{6-[6-(3-{1-[(3RS)-2,6-dioxopiperidin-3-yl]-3-methyl-2-oxo-2,3-dihydro-1H-benzimidazol-5-yl}propyl)-5,6,7,8-tetrahydropyrido[4,3-d]pyrimidin-2-yl]-2H-indazol-2-yl}cyclohexyl]methyl}-2,3,5-trifluoro-4-hydroxybenzamide], the DC50 was 0.5 nM and the “Huh7_HIBIT-HSD17β13_DC50 GMean Asymptote Maximum” value was 78%.

For `Cn1c(=O)n(C2CCC(=O)NC2=O)c2ccc(CCCN3CCN(c4ncc(-c5ccn6cc(C78CCC(CNC(=O)c9cc(F)c(O)c(F)c9F)(CC7)CC8)nc6c5)cn4)CC3)cc21.O=C(O)C(F)(F)F` (racemic) [Example 12, N-{[4-(7-{2-[4-(3-{1-[(3RS)-2,6-Dioxopiperidin-3-yl]-3-methyl-2-oxo-2,3-dihydro-1H-benzimidazol-5-yl}propyl)piperazin-1-yl]pyrimidin-5-yl}imidazo[1,2-a]pyridin-2-yl)bicyclo[2.2.2]octan-1-yl]methyl}-2,3,5-trifluoro-4-hydroxybenzamide, trifluoroacetate salt], the DC50 was 0.14 nM and the “Huh7_HIBIT-HSD17β13_DC50 GMean Asymptote Maximum” value was 84%.

`Cn1c(=O)n(C2CCC(=O)NC2=O)c2ccc(CCCCNc3ncc(-c4ccc5cn([C@H]6CC[C@H](CNC(=O)c7cc(F)c(O)c(F)c7F)CC6)nc5c4)cn3)cc21` (mixture of isomers) [Example 38, N-{[(1r,4r)-4-(6-{2-[(4-{1-[(3RS)-2,6-dioxopiperidin-3-yl]-3-methyl-2-oxo-2,3-dihydro-1H-benzimidazol-5-yl}butyl)amino]pyrimidin-5-yl}-2H-indazol-2-yl)cyclohexyl]methyl}-2,3,5-trifluoro-4-hydroxybenzamide] was tested, and the DC50 was 2.6 nM and the “Huh7_HIBIT-HSD17β13_DC50 GMean Asymptote Maximum” value was 79%.

For `O=C1CCN(c2cnn3cc(CCCN4CCN(c5ncc(-c6ccn7cc([C@]89CC[C@](CNC(=O)c%10cc(F)c(O)c(F)c%10F)(CC8)CC9)nc7c6)cn5)CC4)ccc23)C(=O)N1` [Example 99, N-[(4-{7-[2-(4-{3-[3-(2,4-dioxo-1,3-diazinan-1-yl)pyrazolo[1,5-a]pyridin-6-yl]propyl}piperazin-1-yl)pyrimidin-5-yl]imidazo[1,2-a]pyridin-2-yl}bicyclo[2.2.2]octan-1-yl)methyl]-2,3,5-trifluoro-4-hydroxybenzamide, formate salt], the DC50 was 1.7 nM and the “Huh7_HIBIT-HSD17β13_DC50 GMean Asymptote Maximum” value was 70%.

For `Cl.Cn1c(=O)n(C2CCC(=O)NC2=O)c2ccc(CCCN3CCN(c4ccc5cn([C@H]6CC[C@H](CNC(=O)c7cc(F)c(O)c(F)c7F)CC6)nc5c4)CC3)cc21` (mixture of isomers) [Example 27, N-{[(1r,4r)-4-{6-[4-(3-{1-[(3RS)-2,6-dioxopiperidin-3-yl]-3-methyl-2-oxo-2,3-dihydro-1H-benzimidazol-5-yl}propyl)piperazin-1-yl]-2H-indazol-2-yl}cyclohexyl]methyl}-2,3,5-trifluoro-4-hydroxybenzamide, hydrochloride salt], the DC50 was 0.82 nM and the “Huh7_HIBIT-HSD17β13_DC50 GMean Asymptote Maximum” value was 86%.

`Cn1c(=O)n(C2CCC(=O)NC2=O)c2ccc(CN3CCOC4(C3)CN(c3ncc(-c5ccc6cn([C@H]7CC[C@H](CNC(=O)c8cc(F)c(O)c(F)c8F)CC7)nc6c5)cn3)C4)cc21` (mixture of isomers) [Example 78, N-{[(1r,4r)-4-(6-{2-[8-({1-[(3RS)-2,6-dioxopiperidin-3-yl]-3-methyl-2-oxo-2,3-dihydro-1H-benzimidazol-5-yl}methyl)-5-oxa-2,8-diazaspiro[3.5]nonan-2-yl]pyrimidin-5-yl}-2H-indazol-2-yl)cyclohexyl]methyl}-2,3,5-trifluoro-4-hydroxybenzamide, trifluoroacetate salt] was tested, and the DC50 was 0.47 nM and the “Huh7_HIBIT-HSD17β13_DC50 GMean Asymptote Maximum” value was 78%.

For `Cn1c(=O)n(C2CCC(=O)NC2=O)c2ccc(CCCN3CCN(c4ccc(-c5noc(C67CCC(CNC(=O)c8cc(F)c(O)c(F)c8F)(CC6)CC7)n5)nn4)CC3)cc21.O=C(O)C(F)(F)F` (racemic) [Example 15, N-{[4-(3-{6-[4-(3-{1-[(3RS)-2,6-Dioxopiperidin-3-yl]-3-methyl-2-oxo-2,3-dihydro-1H-benzimidazol-5-yl}propyl)piperazin-1-yl]pyridazin-3-yl}-1,2,4-oxadiazol-5-yl)bicyclo[2.2.2]octan-1-yl]methyl}-2,3,5-trifluoro-4-hydroxybenzamide, trifluoroacetate salt], the DC50 was 0.31 nM and the “Huh7_HIBIT-HSD17β13_DC50 GMean Asymptote Maximum” value was 85%.

With `Cc1ccc(C(=O)N2CCC(CCCn3cc(-c4ccc5cn([C@H]6CC[C@H](CNC(=O)c7cc(F)c(O)c(F)c7)CC6)nc5c4)cn3)CC2)cc1N1CCC(=O)NC1=O` [Example 23, N-{[(1r,4r)-4-{6-[1-(3-{1-[3-(2,4-dioxo-1,3-diazinan-1-yl)-4-methylbenzoyl]piperidin-4-yl}propyl)-1H-pyrazol-4-yl]-2H-indazol-2-yl}cyclohexyl]methyl}-3,5-difluoro-4-hydroxybenzamide] the DC50 was 2.4 nM and the “Huh7_HIBIT-HSD17β13_DC50 GMean Asymptote Maximum” value was 75%.

For `COc1nc(-c2ccc3cn([C@H]4CC[C@H](CNC(=O)c5cc(F)c(O)c(F)c5F)CC4)nc3c2)nc2c1CN(CCCc1ccc3c(c1)n(C)c(=O)n3C1CCC(=O)NC1=O)C2` (mixture of isomers) [Example 126, N-{[(1r,4r)-4-{6-[6-(3-{1-[(3RS)-2,6-dioxopiperidin-3-yl]-3-methyl-2-oxo-2,3-dihydro-1H-benzimidazol-5-yl}propyl)-4-methoxy-6,7-dihydro-5H-pyrrolo[3,4-d]pyrimidin-2-yl]-2H-indazol-2-yl}cyclohexyl]methyl}-2,3,5-trifluoro-4-hydroxybenzamide, trifluoroacetate salt], the DC50 was 0.36 nM and the “Huh7_HIBIT-HSD17β13_DC50 GMean Asymptote Maximum” value was 84%.

For `O=C(O)C(F)(F)F.O=C1CCN(c2cnc3cc(CCCN4CCN(c5ncc(-c6ccc7cn(C8CCC(CNC(=O)c9cc(F)c(O)c(F)c9F)CC8)nc7c6)cn5)CC4)ccn23)C(=O)N1` (stereo not drawn) [Example 19, N-{[(1r,4r)-4-{6-[2-(4-{3-[3-(2,4-Dioxo-1,3-diazinan-1-yl)imidazo[1,2-a]pyridin-7-yl]propyl}piperazin-1-yl)pyrimidin-5-yl]-2H-indazol-2-yl}cyclohexyl]methyl}-2,3,5-trifluoro-4-hydroxybenzamide, trifluoroacetate salt], the DC50 was 0.73 nM and the “Huh7_HIBIT-HSD17β13_DC50 GMean Asymptote Maximum” value was 82%.

In the case of `Cn1c(=O)n(C2CCC(=O)NC2=O)c2ccc(CCCN3CCc4ccc(-c5ccc6cn([C@H]7CC[C@H](CNC(=O)c8cc(F)c(O)c(F)c8F)CC7)nc6c5)cc4C3)cc21` (mixture of isomers) [Example 32, N-{[(1r,4r)-4-{6-[2-(3-{1-[(3RS)-2,6-dioxopiperidin-3-yl]-3-methyl-2-oxo-2,3-dihydro-1H-benzimidazol-5-yl}propyl)-1,2,3,4-tetrahydroisoquinolin-7-yl]-2H-indazol-2-yl}cyclohexyl]methyl}-2,3,5-trifluoro-4-hydroxybenzamide, trifluoroacetate salt], the DC50 is reported as 0.3 nM and the “Huh7_HIBIT-HSD17β13_DC50 GMean Asymptote Maximum” value is reported as 83%.

`Cn1c(=O)n(C2CCC(=O)NC2=O)c2ccc(CC3CCN(c4ncc(-c5ccc6cn([C@H]7CC[C@H](CNC(=O)c8cc(F)c(O)c(F)c8F)CC7)nc6c5)cn4)CC3)cc21` (mixture of isomers) [Example 46, N-{[(1r,4r)-4-(6-{2-[4-({1-[(3RS)-2,6-dioxopiperidin-3-yl]-3-methyl-2-oxo-2,3-dihydro-1H-benzimidazol-5-yl}methyl)piperidin-1-yl]pyrimidin-5-yl}-2H-indazol-2-yl)cyclohexyl]methyl}-2,3,5-trifluoro-4-hydroxybenzamide, trifluoroacetate salt] was tested, and the DC50 was 0.57 nM and the “Huh7_HIBIT-HSD17β13_DC50 GMean Asymptote Maximum” value was 84%.

For `Cc1ccc(C(=O)N2CCC3(CCC(N4CCN(c5ccc6cn([C@H]7CC[C@H](CNC(=O)c8cc(F)c(O)c(F)c8F)CC7)nc6c5)CC4)CC3)C2)cc1N1CCC(=O)NC1=O` (stereo partly drawn) [Example 104, N-({(1r,4r)-4-[6-(4-{2-[3-(2,4-dioxo-1,3-diazinan-1-yl)-4-methylbenzoyl]-2-azaspiro[4.5]decan-8-yl}piperazin-1-yl)-2H-indazol-2-yl]cyclohexyl}methyl)-2,3,5-trifluoro-4-hydroxybenzamide, trifluoroacetate salt], the DC50 was 3.6 nM and the “Huh7_HIBIT-HSD17β13_DC50 GMean Asymptote Maximum” value was 78%.

In the case of `Cn1c(=O)n(C2CCC(=O)NC2=O)c2ccc(CCC3CN(c4ncc(-c5ccc6cn([C@H]7CC[C@H](CNC(=O)c8cc(F)c(O)c(F)c8F)CC7)nc6c5)cn4)C3)cc21` (mixture of isomers) [Example 41, N-{[(1r,4r)-4-(6-{2-[3-(2-{1-[(3RS)-2,6-dioxopiperidin-3-yl]-3-methyl-2-oxo-2,3-dihydro-1H-benzimidazol-5-yl}ethyl)azetidin-1-yl]pyrimidin-5-yl}-2H-indazol-2-yl)cyclohexyl]methyl}-2,3,5-trifluoro-4-hydroxybenzamide], the DC50 is reported as 0.86 nM and the “Huh7_HIBIT-HSD17β13_DC50 GMean Asymptote Maximum” value is reported as 81%.

For `Cn1c(=O)n(C2CCC(=O)NC2=O)c2ccc(CCN3CCN(c4ncc(-c5ccc6cn([C@H]7CC[C@H](CNC(=O)c8cc(F)c(O)c(F)c8F)CC7)nc6c5)cn4)CC3)cc21` (mixture of isomers) [Example 43, N-{[(1r,4r)-4-(6-{2-[4-(2-{1-[(3RS)-2,6-dioxopiperidin-3-yl]-3-methyl-2-oxo-2,3-dihydro-1H-benzimidazol-5-yl}ethyl)piperazin-1-yl]pyrimidin-5-yl}-2H-indazol-2-yl)cyclohexyl]methyl}-2,3,5-trifluoro-4-hydroxybenzamide, trifluoroacetate salt], the DC50 was 0.29 nM and the “Huh7_HIBIT-HSD17β13_DC50 GMean Asymptote Maximum” value was 83%.
